Legend:
[1] = tested on: GSPT1; assay: Western blot, degradation of substrate protein in hPBMCs; type: cell-based, Human
[2] = molecular target: T1, WEE1 (Homo sapiens, UniProt P30291+Q96SW2); assay: as above; type: cell-based
T1 construct: effects of the compounds of the present disclosure on the expression of target proteins in cells; endogenous in cells; host or cells: human PBMCs (Milecell Biotechnologies)

[3] = molecular target: T2, IKZF1 (Homo sapiens, UniProt Q13422+Q96SW2); assay: as above; type: cell-based
T2 construct: effects of the compounds of the present disclosure on the expression of target proteins in cells; endogenous in cells; host or cells: human PBMCs (Milecell Biotechnologies)

[4] = molecular target: T3, IKZF2 (Homo sapiens, UniProt Q96SW2+Q9UKS7); assay: as above; type: cell-based
T3 construct: effects of the compounds of the present disclosure on the expression of target proteins in cells; endogenous in cells; host or cells: human PBMCs (Milecell Biotechnologies)

[5] = molecular target: T4, IKZF3 (Homo sapiens, UniProt Q96SW2+Q9UKT9); assay: as above; type: cell-based
T4 construct: effects of the compounds of the present disclosure on the expression of target proteins in cells; endogenous in cells; host or cells: human PBMCs (Milecell Biotechnologies)

[6] = molecular target: T5, CK1α (Homo sapiens, UniProt P48729+Q96SW2); assay: as above; type: cell-based
T5 construct: effects of the compounds of the present disclosure on the expression of target proteins in cells; endogenous in cells; host or cells: human PBMCs (Milecell Biotechnologies)

[7] = molecular target: T6, human Cereblon WT GST-tagged protein (Homo sapiens, UniProt Q96SW2); assay: CRBN-binding affinity, HTRF (CEREBLON BINDING kit); details: for inhibition at 0.5 µM: read-out: Inhibition Rate at 0.5 µM (%); for inhibition at 2 µM: read-out: Inhibition Rate at 2 µM (%)
T6 construct: purchased CISBIO 64BDCRBNPEH

[8] = Western blot, 24 hours of compound treatment, compounds tested at 50 nM and 500 nM (concentration for the table not stated)
[9] = 24 hours treatment, compounds at 50 nM and 500 nM (concentration behind the class not stated)

T3 sequence (Q9UKS7 whole entry): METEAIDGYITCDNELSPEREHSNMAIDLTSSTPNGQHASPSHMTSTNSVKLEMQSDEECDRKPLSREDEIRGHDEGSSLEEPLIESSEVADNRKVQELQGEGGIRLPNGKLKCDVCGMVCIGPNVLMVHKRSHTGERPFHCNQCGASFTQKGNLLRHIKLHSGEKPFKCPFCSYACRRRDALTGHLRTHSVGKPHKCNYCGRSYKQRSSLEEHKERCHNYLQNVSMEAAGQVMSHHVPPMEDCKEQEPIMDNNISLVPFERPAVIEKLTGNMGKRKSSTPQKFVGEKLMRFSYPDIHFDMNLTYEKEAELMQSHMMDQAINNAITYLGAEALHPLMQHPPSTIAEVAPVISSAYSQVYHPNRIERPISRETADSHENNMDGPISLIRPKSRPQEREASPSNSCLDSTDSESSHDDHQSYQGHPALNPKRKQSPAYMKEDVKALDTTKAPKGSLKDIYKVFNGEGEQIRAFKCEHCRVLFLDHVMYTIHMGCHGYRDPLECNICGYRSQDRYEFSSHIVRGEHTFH
T3 sequence (Q96SW2 whole entry): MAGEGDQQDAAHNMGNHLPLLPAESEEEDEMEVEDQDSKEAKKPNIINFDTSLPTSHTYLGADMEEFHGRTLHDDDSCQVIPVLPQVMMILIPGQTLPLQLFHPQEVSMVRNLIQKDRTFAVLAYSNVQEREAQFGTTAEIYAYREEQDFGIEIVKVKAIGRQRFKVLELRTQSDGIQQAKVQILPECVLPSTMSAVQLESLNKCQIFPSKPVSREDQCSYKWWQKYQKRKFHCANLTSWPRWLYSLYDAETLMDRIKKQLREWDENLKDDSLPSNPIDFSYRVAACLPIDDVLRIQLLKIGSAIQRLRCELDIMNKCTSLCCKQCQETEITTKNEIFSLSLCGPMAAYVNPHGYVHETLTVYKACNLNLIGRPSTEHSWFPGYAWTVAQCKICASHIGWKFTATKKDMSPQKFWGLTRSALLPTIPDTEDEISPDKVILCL
T3 sequence (Q16531 whole entry partner): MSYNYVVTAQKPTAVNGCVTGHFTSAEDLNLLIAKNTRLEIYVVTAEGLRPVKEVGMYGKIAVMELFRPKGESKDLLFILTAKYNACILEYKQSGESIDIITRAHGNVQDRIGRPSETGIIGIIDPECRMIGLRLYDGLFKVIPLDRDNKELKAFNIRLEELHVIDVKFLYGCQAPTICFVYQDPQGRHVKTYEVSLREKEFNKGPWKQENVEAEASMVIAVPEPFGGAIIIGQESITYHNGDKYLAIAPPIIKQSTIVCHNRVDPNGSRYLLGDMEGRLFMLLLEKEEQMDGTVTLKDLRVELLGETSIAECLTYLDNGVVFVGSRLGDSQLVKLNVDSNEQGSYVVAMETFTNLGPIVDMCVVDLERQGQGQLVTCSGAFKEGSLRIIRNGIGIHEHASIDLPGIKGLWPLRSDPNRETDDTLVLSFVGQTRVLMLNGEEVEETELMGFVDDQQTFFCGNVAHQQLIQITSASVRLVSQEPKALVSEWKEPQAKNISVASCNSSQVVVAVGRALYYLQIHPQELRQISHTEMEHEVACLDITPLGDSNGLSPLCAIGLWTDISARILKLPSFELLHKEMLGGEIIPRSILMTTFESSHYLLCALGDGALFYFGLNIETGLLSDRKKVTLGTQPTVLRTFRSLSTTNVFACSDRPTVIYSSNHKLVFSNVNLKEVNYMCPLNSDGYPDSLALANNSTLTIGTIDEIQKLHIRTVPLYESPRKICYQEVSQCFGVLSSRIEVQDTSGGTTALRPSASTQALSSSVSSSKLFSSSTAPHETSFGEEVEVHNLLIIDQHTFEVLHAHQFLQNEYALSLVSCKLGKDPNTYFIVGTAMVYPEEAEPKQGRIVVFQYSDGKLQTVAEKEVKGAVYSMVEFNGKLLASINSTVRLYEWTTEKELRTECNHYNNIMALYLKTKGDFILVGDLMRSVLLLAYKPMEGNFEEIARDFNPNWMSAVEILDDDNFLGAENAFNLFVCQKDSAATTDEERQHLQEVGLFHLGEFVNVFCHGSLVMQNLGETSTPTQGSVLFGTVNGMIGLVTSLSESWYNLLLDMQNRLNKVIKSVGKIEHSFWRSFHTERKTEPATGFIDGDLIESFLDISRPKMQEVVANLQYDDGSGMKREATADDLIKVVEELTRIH
T5 sequence (P48729 whole entry): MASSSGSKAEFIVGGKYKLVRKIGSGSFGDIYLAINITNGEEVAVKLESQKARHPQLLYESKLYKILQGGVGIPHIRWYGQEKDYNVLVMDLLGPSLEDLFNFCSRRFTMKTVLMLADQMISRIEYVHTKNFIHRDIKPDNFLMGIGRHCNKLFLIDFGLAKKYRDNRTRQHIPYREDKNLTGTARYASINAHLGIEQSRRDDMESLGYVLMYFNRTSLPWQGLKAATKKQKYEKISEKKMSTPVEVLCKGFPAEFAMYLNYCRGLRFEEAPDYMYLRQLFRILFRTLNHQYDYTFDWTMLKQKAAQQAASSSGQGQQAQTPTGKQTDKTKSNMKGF
T5 sequence (Q96SW2 whole entry): as the sequence (Q96SW2 whole entry) above
T5 sequence (Q16531 whole entry partner): as the sequence (Q16531 whole entry partner) above
T2 sequence (Q13422 whole entry): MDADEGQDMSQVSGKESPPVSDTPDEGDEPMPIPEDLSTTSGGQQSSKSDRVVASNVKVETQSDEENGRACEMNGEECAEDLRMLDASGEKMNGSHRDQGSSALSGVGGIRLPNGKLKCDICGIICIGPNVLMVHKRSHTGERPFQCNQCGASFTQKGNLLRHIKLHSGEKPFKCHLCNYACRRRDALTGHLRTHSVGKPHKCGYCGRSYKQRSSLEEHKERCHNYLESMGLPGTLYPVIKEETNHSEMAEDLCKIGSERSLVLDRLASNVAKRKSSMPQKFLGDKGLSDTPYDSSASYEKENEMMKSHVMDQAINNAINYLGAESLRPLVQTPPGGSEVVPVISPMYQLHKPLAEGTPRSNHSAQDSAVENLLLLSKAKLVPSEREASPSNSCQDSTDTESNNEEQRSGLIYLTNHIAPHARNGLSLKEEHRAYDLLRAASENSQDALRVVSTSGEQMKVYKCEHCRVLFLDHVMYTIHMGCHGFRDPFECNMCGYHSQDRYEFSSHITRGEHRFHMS
T2 sequence (Q96SW2 whole entry): as the sequence (Q96SW2 whole entry) above
T2 sequence (Q16531 whole entry partner): as the sequence (Q16531 whole entry partner) above
T6 sequence (Q96SW2 whole entry): as the sequence (Q96SW2 whole entry) above
T4 sequence (Q9UKT9 whole entry): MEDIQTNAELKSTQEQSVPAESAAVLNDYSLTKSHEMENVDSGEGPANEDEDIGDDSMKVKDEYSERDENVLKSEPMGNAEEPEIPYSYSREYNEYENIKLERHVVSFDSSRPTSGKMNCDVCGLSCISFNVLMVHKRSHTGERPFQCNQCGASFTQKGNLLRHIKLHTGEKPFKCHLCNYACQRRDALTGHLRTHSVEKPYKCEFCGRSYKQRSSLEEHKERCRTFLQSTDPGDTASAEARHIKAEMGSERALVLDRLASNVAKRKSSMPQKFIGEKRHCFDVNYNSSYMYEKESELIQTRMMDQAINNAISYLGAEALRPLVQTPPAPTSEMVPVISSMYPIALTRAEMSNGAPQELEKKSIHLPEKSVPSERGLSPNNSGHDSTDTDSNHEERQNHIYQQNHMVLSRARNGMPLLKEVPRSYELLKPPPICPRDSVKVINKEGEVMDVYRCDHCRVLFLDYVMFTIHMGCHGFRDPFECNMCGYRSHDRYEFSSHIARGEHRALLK
T4 sequence (Q96SW2 whole entry): as the sequence (Q96SW2 whole entry) above
T4 sequence (Q16531 whole entry partner): as the sequence (Q16531 whole entry partner) above
T1 sequence (P30291 whole entry): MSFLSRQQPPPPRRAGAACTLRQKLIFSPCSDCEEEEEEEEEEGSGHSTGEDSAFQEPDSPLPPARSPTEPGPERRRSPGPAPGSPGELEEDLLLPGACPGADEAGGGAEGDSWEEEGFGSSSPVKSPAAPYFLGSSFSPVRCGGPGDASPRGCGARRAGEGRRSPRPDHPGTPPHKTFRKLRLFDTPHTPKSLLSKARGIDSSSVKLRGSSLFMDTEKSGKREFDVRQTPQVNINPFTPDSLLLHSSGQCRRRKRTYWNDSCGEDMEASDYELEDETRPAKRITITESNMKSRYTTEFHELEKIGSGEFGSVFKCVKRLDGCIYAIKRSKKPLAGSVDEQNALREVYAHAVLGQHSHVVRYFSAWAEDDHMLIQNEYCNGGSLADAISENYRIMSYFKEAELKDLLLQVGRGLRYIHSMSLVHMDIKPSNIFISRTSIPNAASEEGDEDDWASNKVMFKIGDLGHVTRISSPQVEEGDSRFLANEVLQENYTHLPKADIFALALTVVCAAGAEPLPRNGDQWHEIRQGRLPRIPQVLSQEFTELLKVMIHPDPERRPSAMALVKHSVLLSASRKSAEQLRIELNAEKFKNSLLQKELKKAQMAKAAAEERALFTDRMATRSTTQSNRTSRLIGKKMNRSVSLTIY
T1 sequence (Q96SW2 whole entry): as the sequence (Q96SW2 whole entry) above
T1 sequence (Q16531 whole entry partner): as the sequence (Q16531 whole entry partner) above

SMILES	GSPT1 substrate protein remaining % [1, 8]	Wee1 substrate protein remaining % [2, 8]	IKZF 1 substrate protein remaining % [3, 8]	IKZF2 substrate protein remaining % [4, 8]	IKZF3 substrate protein remaining % [5, 8]	CK1α substrate protein remaining % [6, 8]	inhibition at 0.5 µM [7]	inhibition at 2 µM [7]	GSPT1 substrate protein remaining % [1, 9]	Wee1 substrate protein remaining % [2, 9]	IKZF 1 substrate protein remaining % [3, 9]	IKZF2 substrate protein remaining % [4, 9]	IKZF3 substrate protein remaining % [5, 9]	CK1α substrate protein remaining % [6, 9]
O=C1CCC(N2Cc3c(CN4C[C@H]5C[C@@H]4CN5C(c4ccccc4)c4ccccc4)cccc3C2=S)C(=O)N1 (stereo partly drawn) [GT-08208, 3-(4-(((1R,4R)-5-benzhydryl-2,5-diazabicyclo[2.2.1]heptan-2-yl)methyl)-1-thioxoisoindolin-2-yl)piperidine-2,6-dione]	A (0% ≤ substrate protein remaining % ≤ 80%)	A (0% ≤ substrate protein remaining % ≤ 80%)	B (80%< substrate protein remaining %≤ 100%)	A (0% ≤ substrate protein remaining % ≤ 80%)	B (80%< substrate protein remaining %≤ 100%)	B (80%< substrate protein remaining %≤ 100%)	40 to 53%	80 to 100%						
O=C1CCC(N2Cc3c(CN4CCN(c5cccnn5)CC4)cccc3C2=S)C(=O)N1 (centres unmarked) [GT-08810, 3-(4-((4-(pyridazin-3-yl)piperazin-1-yl)methyl)-1-thioxoisoindolin-2-yl)piperidine-2,6-dione]	B (80%< substrate protein remaining %≤ 100%)	A (0% ≤ substrate protein remaining % ≤ 80%)	B (80%< substrate protein remaining %≤ 100%)	B (80%< substrate protein remaining %≤ 100%)	B (80%< substrate protein remaining %≤ 100%)	B (80%< substrate protein remaining %≤ 100%)	60 to 80%	80 to 100%						
Cc1nc(N2CCN(Cc3ccc4c(c3)CN(C3CCC(=O)NC3=O)C4=S)CC2)c2c3c(sc2n1)CCCC3 (centres unmarked) [GT-09299, 3-(5-((4-(2-methyl-5,6,7,8-tetrahydrobenzo[4,5]thieno[2,3-d]pyrimidin-4-yl)piperazin-1-yl)methyl)-1-thioxoisoindolin-2-yl)piperidine-2,6-dione]							53 to 60%	80 to 100%	B (80%< substrate protein remaining %≤ 100%)	B (80%< substrate protein remaining %≤ 100%)	B (80%< substrate protein remaining %≤ 100%)	A (0% ≤ substrate protein remaining % ≤ 80%)	A (0% ≤ substrate protein remaining % ≤ 80%)	B (80%< substrate protein remaining %≤ 100%)
O=C1CCC(N2Cc3c(CN4CCN(c5ccc(F)cc5)CC4)cccc3C2=S)C(=O)N1 (centres unmarked) [GT-08264, 3-(4-((4-(4-fluorophenyl)piperazin-1-yl)methyl)-1-thioxoisoindolin-2-yl)piperidine-2,6-dione]	A (0% ≤ substrate protein remaining % ≤ 80%)	A (0% ≤ substrate protein remaining % ≤ 80%)	B (80%< substrate protein remaining %≤ 100%)	B (80%< substrate protein remaining %≤ 100%)	A (0% ≤ substrate protein remaining % ≤ 80%)	A (0% ≤ substrate protein remaining % ≤ 80%)	40 to 53%	80 to 100%						
Cc1nc(C2=CCN(Cc3ccc4c(c3)CN(C3CCC(=O)NC3=O)C4=S)CC2)c2c3c(sc2n1)CCC3 (centres unmarked) [GT-09326, 3-(5-((4-(2-methyl-6,7-dihydro-5H-cyclopenta[4,5]thieno[2,3-d]pyrimidin-4-yl)-3,6-dihydropyridin-1(2H)-yl)methyl)-1-thioxoisoindolin-2-yl)piperidine-2,6-dione]							53 to 60%	80 to 100%	A (0% ≤ substrate protein remaining % ≤ 80%)	A (0% ≤ substrate protein remaining % ≤ 80%)	B (80%< substrate protein remaining %≤ 100%)	B (80%< substrate protein remaining %≤ 100%)	B (80%< substrate protein remaining %≤ 100%)	B (80%< substrate protein remaining %≤ 100%)
O=C1CCC(N2Cc3c(CN4CCC(c5c[nH]c6ncccc56)CC4)cccc3C2=S)C(=O)N1 (centres unmarked) [GT-08848, 3-(4-((4-(1H-pyrrolo[2,3-b]pyridin-3-yl)piperidin-1-yl)methyl)-1-thioxoisoindolin-2-yl)piperidine-2,6-dione]	B (80%< substrate protein remaining %≤ 100%)	A (0% ≤ substrate protein remaining % ≤ 80%)	B (80%< substrate protein remaining %≤ 100%)	B (80%< substrate protein remaining %≤ 100%)	B (80%< substrate protein remaining %≤ 100%)	B (80%< substrate protein remaining %≤ 100%)	30 to 40%	80 to 100%						
O=C1CCC(N2Cc3c(CN4CCN(c5ccncc5Br)CC4)cccc3C2=S)C(=O)N1 (centres unmarked) [GT-08729, 3-(4-((4-(3-bromopyridin-4-yl)piperazin-1-yl)methyl)-1-thioxoisoindolin-2-yl)piperidine-2,6-dione]	B (80%< substrate protein remaining %≤ 100%)	A (0% ≤ substrate protein remaining % ≤ 80%)	B (80%< substrate protein remaining %≤ 100%)	B (80%< substrate protein remaining %≤ 100%)	B (80%< substrate protein remaining %≤ 100%)	B (80%< substrate protein remaining %≤ 100%)	60 to 80%	80 to 100%						
Cc1csc2ncnc(N3CCN(Cc4cccc5c4CN(C4CCC(=O)NC4=O)C5=S)CC3)c12 (centres unmarked) [GT-08913, 3-(4-((4-(5-methylthieno[2,3-d]pyrimidin-4-yl)piperazin-1-yl)methyl)-1-thioxoisoindolin-2-yl)piperidine-2,6-dione]							60 to 80%	80 to 100%	B (80%< substrate protein remaining %≤ 100%)	A (0% ≤ substrate protein remaining % ≤ 80%)	B (80%< substrate protein remaining %≤ 100%)	B (80%< substrate protein remaining %≤ 100%)	B (80%< substrate protein remaining %≤ 100%)	B (80%< substrate protein remaining %≤ 100%)
O=C1CCC(N2Cc3cc(CN4CCN(c5nc(N6CCOCC6)nc6ccsc56)CC4)ccc3C2=S)C(=O)N1 (centres unmarked) [GT-09333, 3-(5-((4-(2-morpholinothieno[3,2-d]pyrimidin-4-yl)piperazin-1-yl)methyl)-1-thioxoisoindolin-2-yl)piperidine-2,6-dione]							60 to 80%	80 to 100%	A (0% ≤ substrate protein remaining % ≤ 80%)	B (80%< substrate protein remaining %≤ 100%)	A (0% ≤ substrate protein remaining % ≤ 80%)	B (80%< substrate protein remaining %≤ 100%)	A (0% ≤ substrate protein remaining % ≤ 80%)	B (80%< substrate protein remaining %≤ 100%)
O=C1CCC(N2Cc3c(CN4CC=C(c5cccc6cnccc56)CC4)cccc3C2=S)C(=O)N1 (centres unmarked) [GT-08634, 3-(4-((4-(isoquinolin-5-yl)-3,6-dihydropyridin-1(2H)-yl)methyl)-1-thioxoisoindolin-2-yl)piperidine-2,6-dione]	B (80%< substrate protein remaining %≤ 100%)	A (0% ≤ substrate protein remaining % ≤ 80%)	B (80%< substrate protein remaining %≤ 100%)	B (80%< substrate protein remaining %≤ 100%)	B (80%< substrate protein remaining %≤ 100%)	B (80%< substrate protein remaining %≤ 100%)	60 to 80%	80 to 100%						

— patent publication EP4745135A1 (Gluetacs Therapeutics (Shanghai) Co., Ltd., priority 2023, dated 2025)
